Measured values reported in patent US5663197A, “2-(1-hydroxyethyl)-5-hydroxynaphtho[2,3-b]furan-4,9-dione and antitumor agents comprising this compound” (priority 1992, dated 1997).

Tested on: carcinogenic promotion (skin papillomas in mice)
Test: Inhibition of two-step skin carcinogenesis in mice skin
Assay type: in vivo, mouse (female ICR)
Settings: DMBA initiator, TPA promoter, 20 weeks; FIG. 28 (NFD 85 nmol), FIG. 29 (lapacoal)
Method: Female ICR mice were used as test animals. Fifteen mice were housed in a cage and kept on a commercial pellet diet and drinking water ad libitum until the end of the experiment. The mice were purchased at their age of six-week-old. Dorsal hair of mice was shaved, and next day, 390 nmol of 7,12-dimethylbenz(a)anthracene (DMBA) in 0.1 ml acetone was applied, as an initiator, on the shaved back. One week later, 1.7 nmol of 12-O-tetradecanoylphorbol-13-acetate (TPA) in 0.1 ml acetone was applied, as a promoter, to the same place twice a week. This procedure was repeated for 20 weeks.
Mice were observed once a week for the number of papillomas larger than 1 mm, and the experimental results were given as the percentage of papilloma-bearing mice in each group and the number of papillomas per mouse.

With CC(C)=CCC1=C(O)C(=O)c2ccccc2C1=O [lapacoal, reference compound] the “inhibitory effect on carcinogenic promotion in skin” value was “inhibitory effect”.
